Results reported in patent US8715653B2, “Modulation of Rhamm (CD168) for selective adipose tissue development” (The Regents of the University of California, priority 2006, dated 2014).
Entries after “also recorded” stand apart in the source; their conditions may differ.

Columns and labels:
[1] = system: rat excisional skin wounds; experiment: Wound site (sub-cutaneous) adipogenesis in full thickness excisional wounds covered with collagen gel; type: in vivo; details: for adipogenesis within the wound site: rat excisional wounds, peptide in collagen gel, 14 days after wounding, histology
Experimental: FIG. 14. Effect of a hyaluronan binding peptide on wound site (sub-cutaneous) adipogenesis. A. Full thickness excisional wounds were placed on the flanks of male Fisher rats then these were covered with collagen gels (matrix) containing either no peptide (matrix), hyaluronan binding peptide (at 200, 20 and 2 ug/woundsite) or scrambled peptide (at 200 ug/woundsite). The wound sites were excised 14 days after wounding and processed for histology. Micrographs show Mason Trichrome stained tissue sections through the center of the wounds.
Wt and Rh-/- mice (3-18 month old) or male Sprague-Dawley rats were anaesthetized by Halothane inhalation. Two full thickness wounds were placed on denuded back skin using a 4 mm metal punch. In the case of the rat experiments, 200 ul of a vitrogen solution (type 1 collagen solution that gels at 35-37C) containing no peptide, 2-200 μg hyaluronan binding peptide or scrambled peptide was used to cover the wounds. Animals were housed in individual cages for the experimental period. Wounds were harvested at varying times using a 8 mm metal punch from similar locations on the backs of mice of the same gender and age. Harvested wounds were fixed overnight in 4% paraformaldehyde and paraffin embedded as described in Tolg, C., et al. 2003. Genetic deletion of receptor for hyaluronan-mediated motility (Rhamm) attenuates the formation of aggressive fibromatosis (desmoid tumor). Oncogene 22:6873-6882;. Numbered serial sections were cut perpendicular to the wound edge starting at the wound center. The first and last sections were stained with Masson's trichrome and non-stained sections were used for immunohistochemistry. To ensure that serial sections were cut starting at the wound center, wound samples were cut in half through the wound center prior to embedding

[2] = system: uninjured skin of male Fisher rats; experiment: Subcutaneous fat after injection in collagen solution under uninjured skin; type: in vivo; details: uninjured rat skin, injected in type 1 collagen solution, harvested 4, 7 and 14 days after injection
Experimental: 0.2 , 2 and 20 ug of hyaluronan binding peptide or scrambled peptide were mixed in 1 ml of type 1 collagen solution, (3 mg/m1) and 0.25 ml of the solution was injected under the skin on the flanks of 3 month old male Fisher rats. Hair at the site of injection was removed prior to injection using Nair for marking purposes. Injection sites were harvested by skin punches at 4, 7 and 14 days after injection.

Rh-/- fibroblasts [3] = experiment: Random motility of fibroblasts by time-lapse cinemicrography; type: cell-based, mouse
Experimental: (§1) Cell culture medium and culture conditions were described previously in Zhang, S., Chang, M. C., Zylka, D., Turley, S., Harrison, R., and Turley, E. A. 1998. The hyaluronan receptor RHAMM regulates extracellular-regulated kinase. J Biol Chem 273:11342-11348; and Tolg, C., et al. 2003. Genetic deletion of receptor for hyaluronan-mediated motility (Rhamm) attenuates the formation of aggressive fibromatosis (desmoid tumor). Oncogene 22:6873-6882. PDGF-BB (25 ng/ml), HA (500 ng/ml-1 mg/ml) or FCS (10%) were added to 24 hrs serum-starved, 50% sub-confluent fibroblasts on fibronectin (25 μg/ml)-coated dishes (Zhang, S., Chang, M. C., Zylka, D., Turley, S., Harrison, R., and Turley, E. A. 1998. The hyaluronan receptor RHAMM regulates extracellular-regulated kinase. J Biol Chem 273:11342-11348; Hall, C. L., Lange, L. A., Prober, D. A., Zhang, S., and Turley, E. A. 1996. pp60(c-src) is required for cell locomotion regulated by the hyaluronanreceptor RHAMM. Oncogene 13:2213-2224). […]
(§2) For experiments assessing the motogenic effects of HA and PDGF-BB, cells were plated onto fibronectin-coated tissue culture flasks at 50% sub-confluence overnight then serum-starved for 24 hrs. […] For quantifying the effect of FCS, fibroblasts were plated at 50% sub-confluence overnight onto tissue culture dishes that had been pre-coated with serum proteins. […]
(§3) Efficient repair of excisional wounds also depends upon motility speed in response to motogens present in the microenvironment (See Ridley, A. J., Schwartz, M. A., Burridge, K., Firtel, R. A., Ginsberg, M. H., Borisy, G., Parsons, J. T., and Horwitz, A. R. 2003. Cell migration: integrating signals from front to back. Science 302:1704-1709). The velocity of migration stimulated by HA (FIG. 6A) or FCS (FIGS. 9A, 9B) was assessed directly using time-lapse cinemicrography of cells cultured on fibronectin-coated 2D tissue culture surfaces (Hall, C. L., Lange, L. A., Prober, D. A., Zhang, S., and Turley, E. A. 1996. pp60(c-src) is required for cell locomotion regulated by the hyaluronanreceptor RHAMM. Oncogene 13:2213-2224). […]

Wt fibroblasts [4] = experiment: as above; type: cell-based, mouse
Experimental: as §1, §2, §3

Rh-/- fibroblasts [5] = experiment: Disassembly of phalloidin-positive actin stress fibers in response to PDGF-BB; type: cell-based, mouse
Description: (§4) Tissue sections were stained for collagen (Masson's trichrome), α-smooth muscle actin, vimentin and tenascin following manufacturer's recommendations. Staining was quantified after counter-staining with Harris Hematoxylin (EM SCIENCE) and mounting in Cytoseal 60 (Tullberg-Reinert, H., and Jundt, G. 1999. In situ measurement of collagen synthesis by human bone cells with a sirius red-based colorimetric microassay: effects of transforming growth factor beta2 and ascorbic acid 2-phosphate. Histochem Cell Biol 112:271-276). Immunofluorescence of phospho-ERK1,2 was done as previously published (49). For the detection of droplets of neutral lipids, paraformaldehyde-fixed cells were stained with BODIPY 493/503 (25 μg/ml) (Gocze, P. M., and Freeman, D. A. 1994. Factors underlying the variability of lipid droplet fluorescence in MA-10 Leydig tumor cells. Cytometry 17:151-158). Actin stress fibers were detected with Oregon-green phalloidin.
(§5) Cell migration and invasion require the rapid assembly/disassembly of the actin cytoskeleton. Since intracellular Rhamm forms associate with the actin cytoskeleton and are required for v-src-mediated actin cytoskeleton disassembly, we compared the ability of Rh-/- fibroblasts with Rh^FL-rescued fibroblasts to disassemble phalloidin-positive actin stress fibers in response to PDGF-BB. […]

Wt fibroblasts [6] = experiment: as above; type: cell-based, mouse
Description: as §4, §5

[7] = listed as Hyaluronan binding peptides

Compound	concentrations that increase subcutaneous adipogenesis ([1]; rat excisional skin wounds)	adipogenesis within the wound site [1]	adipogenesis within the wound site [1, 7]	subcutaneous fat / accumulation of adipocytes at injection site [2]	subcutaneous fat / accumulation of adipocytes at injection site [2, 7]	effect on motility in response to PDGF-BB (Rh-/- fibroblasts [3])	effect on motility in response to PDGF-BB (Wt fibroblasts [4]; Wt fibroblasts, PDGF-BB)	effect on random motility in the presence of FCS (Wt fibroblasts [4]; primary Wt fibroblasts, FCS)	effect on actin disassembly in response to PDGF-BB (Rh-/- fibroblasts [5])	effect on actin disassembly in response to PDGF-BB (Wt fibroblasts [6])
STMMRSHKTRSHHV (Hyaluronan binding peptide.)	20-200 μg/wound site	filled with adipocytes	promoted adipogenesis; also recorded: increase subcutaneous adipogenesis	increases subcutaneous fat	promoted adipogenesis					
COc1cccc(-c2cc(=O)c3ccccc3o2)c1N [PD98059]						no effect	significantly inhibit	significantly reduce motility	no effect	significantly inhibit
